Results taken from US10562857B2 (AFASCI, Inc., priority 2015, dated 2020).

What follows are molecules tested against T1, Cav3.2 channel (Homo sapiens, UniProt O95180) (assay: Whole-cell patch clamp of T-type Cav3.2 channel expressed in HEK293 cells). Conditions: HEK293; Table 1 primary screening; 1 μM.
T1 construct: expressed in transfected cells; host or cells: HEK-293, tetracycline inducible expression system (Invitrogen)
T1 sequence (O95180 whole entry): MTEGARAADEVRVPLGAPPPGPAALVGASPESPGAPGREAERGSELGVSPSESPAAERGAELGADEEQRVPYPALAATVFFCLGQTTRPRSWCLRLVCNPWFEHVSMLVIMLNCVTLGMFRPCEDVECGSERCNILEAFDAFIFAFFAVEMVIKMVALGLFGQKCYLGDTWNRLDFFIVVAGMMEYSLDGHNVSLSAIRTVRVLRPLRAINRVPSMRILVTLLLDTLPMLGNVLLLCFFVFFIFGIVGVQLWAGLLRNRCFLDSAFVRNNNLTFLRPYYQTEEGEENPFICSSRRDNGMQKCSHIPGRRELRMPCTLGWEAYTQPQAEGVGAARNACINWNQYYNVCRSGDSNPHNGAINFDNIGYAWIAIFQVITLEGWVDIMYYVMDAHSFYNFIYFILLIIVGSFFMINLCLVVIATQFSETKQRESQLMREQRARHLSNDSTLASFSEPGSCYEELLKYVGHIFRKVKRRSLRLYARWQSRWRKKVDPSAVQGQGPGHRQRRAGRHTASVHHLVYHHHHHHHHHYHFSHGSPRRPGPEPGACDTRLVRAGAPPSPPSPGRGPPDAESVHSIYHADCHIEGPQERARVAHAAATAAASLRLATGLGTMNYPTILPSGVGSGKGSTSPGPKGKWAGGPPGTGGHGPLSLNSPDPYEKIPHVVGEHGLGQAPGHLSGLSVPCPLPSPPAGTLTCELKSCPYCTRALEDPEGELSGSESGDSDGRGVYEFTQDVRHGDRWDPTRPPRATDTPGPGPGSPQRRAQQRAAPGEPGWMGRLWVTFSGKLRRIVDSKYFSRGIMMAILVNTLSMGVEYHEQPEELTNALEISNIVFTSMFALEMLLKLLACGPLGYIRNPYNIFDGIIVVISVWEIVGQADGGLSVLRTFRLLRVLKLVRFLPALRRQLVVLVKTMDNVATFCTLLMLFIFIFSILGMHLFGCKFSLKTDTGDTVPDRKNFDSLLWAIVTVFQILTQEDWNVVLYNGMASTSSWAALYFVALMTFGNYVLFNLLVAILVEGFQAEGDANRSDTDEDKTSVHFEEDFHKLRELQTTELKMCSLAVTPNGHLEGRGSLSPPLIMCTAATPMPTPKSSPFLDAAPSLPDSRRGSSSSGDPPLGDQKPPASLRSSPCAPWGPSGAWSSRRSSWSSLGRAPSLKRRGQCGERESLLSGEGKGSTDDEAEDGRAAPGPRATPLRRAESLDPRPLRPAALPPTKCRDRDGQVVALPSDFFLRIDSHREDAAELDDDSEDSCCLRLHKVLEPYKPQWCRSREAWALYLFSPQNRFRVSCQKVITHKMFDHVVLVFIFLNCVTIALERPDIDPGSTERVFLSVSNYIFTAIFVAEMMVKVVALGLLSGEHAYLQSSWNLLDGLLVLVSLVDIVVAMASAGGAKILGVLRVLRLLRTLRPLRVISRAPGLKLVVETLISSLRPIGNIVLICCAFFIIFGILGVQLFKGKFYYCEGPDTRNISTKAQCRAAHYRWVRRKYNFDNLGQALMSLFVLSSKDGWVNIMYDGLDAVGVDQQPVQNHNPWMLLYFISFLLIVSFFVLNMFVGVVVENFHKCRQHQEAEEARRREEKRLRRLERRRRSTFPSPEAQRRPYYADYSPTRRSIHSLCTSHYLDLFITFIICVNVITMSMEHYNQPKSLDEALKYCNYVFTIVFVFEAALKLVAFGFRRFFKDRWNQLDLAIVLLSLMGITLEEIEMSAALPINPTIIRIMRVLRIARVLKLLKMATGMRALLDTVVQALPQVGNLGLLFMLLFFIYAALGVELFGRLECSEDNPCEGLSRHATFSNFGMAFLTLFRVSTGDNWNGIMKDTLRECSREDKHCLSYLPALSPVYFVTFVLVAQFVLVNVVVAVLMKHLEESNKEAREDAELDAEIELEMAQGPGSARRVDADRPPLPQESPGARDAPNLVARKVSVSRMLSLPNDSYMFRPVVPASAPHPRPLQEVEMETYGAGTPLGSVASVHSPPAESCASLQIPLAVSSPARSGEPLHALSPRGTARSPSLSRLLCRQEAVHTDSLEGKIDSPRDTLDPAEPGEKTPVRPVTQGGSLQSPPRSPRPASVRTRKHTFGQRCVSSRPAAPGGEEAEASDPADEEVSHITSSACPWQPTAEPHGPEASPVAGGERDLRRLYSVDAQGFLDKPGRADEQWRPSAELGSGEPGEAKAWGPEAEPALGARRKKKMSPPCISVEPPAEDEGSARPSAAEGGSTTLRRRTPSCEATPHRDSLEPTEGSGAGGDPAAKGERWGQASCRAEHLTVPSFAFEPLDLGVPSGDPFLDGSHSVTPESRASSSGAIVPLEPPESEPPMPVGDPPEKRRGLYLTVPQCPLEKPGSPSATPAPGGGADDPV
Format: cell-based
Procedure: Cav3.1, Cav3.2 or Cav3.3 channels were expressed in human embryonic kidney (HEK)-293 cells using a tetracycline inducible expression system (Invitrogen). Cells were maintained in 25 cm^2 tissue culture flasks at 37° C., 5% CO2, and 100% relative humidity in D-MEM/F12 (Dulbecco's Modified Eagle Medium/Nutrient Mixture F-12; Gibco) supplemented with fetal bovine serum (FBS, 10% v/v), sodium pyruvate (0.5 mM, Gibco), penicillin-streptomycin (100 U/mL, 100 μg/mL) and Geneticin® Selective antibiotic (G418; 0.5 mg/mL). Cells were detached from the flask base using a non-enzymatic cell dissociation solution (Cellstripper, Corning), removed and re-seeded on to poly-D-lysine coated glass coverslips in 35 mm dishes. Cells in dishes were further supplemented with G418 at a final concentration of 1 mg/mL and after 24 hours, expression of Cav3.2 was induced with 1 μg/mL tetracycline. The medium for the HEK-293 cells was composed of D-MEM/F-12 (Dulbecco's Modified Eagle Medium/Nutrient Mixture F-12; Gibco, #11330-032) and 15 mM HEPES buffer, with L-glutamine and pyridoxine hydrochloride. It was supplemented with FBS (Fetal Bovine Serum), P/S (Penicillin/Streptomycin) (Gibco, #15140-122), and sodium pyruvate 100 mM (Gibco, #11360-070). At least 24 hours before the assay, expression of the alpha-2-delta-1 and beta2a subunits of the calcium channel were induced with 1 ug/mL tetracycline.
Whole-cell voltage clamp recordings were performed on rat or mouse DRG neurons within 2 days after acutely dissociation or cultured HEK293 cells expressing T-type channels (encoded by Cav3.1, Cav3.2 or Cav3.3 channels). All experiments were performed at room temperature (around 21° C.). Whole-cell currents were recorded using a MultiClamp 700B amplifier and analyzed offline with pCLAMP10.4 software (Molecular Devices, LLC, Sunnyvale Calif., USA). To record calcium currents in DRG and HEK293 cells, the external solution was composed (in mM) of 115 choline-Cl, 30 TEA-Cl, 2 CaCl2, 10 glucose and 10 HEPES (pH 7.3-7.4 adjusted with TEA-OH; osmolality verified as 295 mOsm/kg). The internal solution was composed (in mM) of 125 CsCl, 10 HEPES (acid), 10 EGTA (ethylene glycol tetraacetic acid), 1 CaCl2, 1 MgCl2, 4 MgATP and 0.3 MgGTP (pH 7.3-7.4 adjusted with CsOH; osmolality verified as 295 mOsm/kg). Since the sodium ions were absent in the external solution, tetrodoctoxin was not needed. Calcium currents were recorded at a holding potential of −100 mV and then depolarized to −30 mV for 100 ms to activate either Cav3.1, Cav3.2, or Cav3.3 expressed in HEK cells. An interpulse interval of 10 seconds allowed the channel recovery from inactivation, and achieved stable current recordings. To record sodium (Na^+) currents in DRG neurons, the external solution used the modified Krebs solution specified above. The internal solution was composed (in mM) of 120 CsF, 10 HEPES, 11 EGTA, 1 CaCl2, 1 MgCl2, 10 TEA-Cl, 4 MgATP and 0.3 MgGTP (pH 7.3-7.4 adjusted with CsOH). […] To record potassium currents in DRG neurons, the external solution used the modified Kreb's solution specified above. The internal solution was composed (in mM) of 65 KCl, 80 KF, 5 KOH, 10 EGTA, 2 MgATP (pH 7.3-7.4 adjusted with KOH). Recording electrodes were fabricated using a P-87 puller (Sutter Instrument Co., Novato, Calif., USA). The tip of resistance was 3-4 MQ in bath and the series resistance was less than 10 MΩ after whole cell configuration. All reagents were purchased from Sigma unless specified otherwise. Test compounds were usually applied via a rapid solution exchange system with 8 fine polyplastic tubings (100 μm, OD) glued in a holder in parallel and located closely to the recorded cells. […]
For `CC(C)(C)CCN1CCC2(CC1)CC2NC(=O)c1ccccc1Cl` (stereo not shown) [Example 20, 2-Chloro-N-(6-(3,3-dimethylbutyl)-6-azaspiro[2.5]octan-1-yl)benzamide], the inhibition at 1 µM was 37%. In the case of `CC(C)(C)CCN1CCC2(CC1)CC2NC(=O)c1cccc(Cl)c1` (stereo not shown) [Example 21, 3-Chloro-N-(6-(3,3-dimethylbutyl)-6-azaspiro[2.5]octan-1-yl)benzamide], the inhibition at 1 µM is reported as 67%. Molecule `CC(C)(C)CCN1CCC2(CC1)CC2NC(=O)c1ccc(Cl)cc1` (stereo not shown) [Example 22, 4-Chloro-N-(6-(3,3-dimethylbutyl)-6-azaspiro[2.5]octan-1-yl)benzamide] has an inhibition at 1 µM of 50%. Molecule `CC(C)(C)CCN1CCC2(CC1)CC2NC(=O)c1ccc(Cl)cc1Cl` (stereo not shown) [Example 23, 2,4-Dichloro-N-(6-(3,3-dimethylbutyl)-6-azaspiro[2.5]octan-1-yl)benzamide] has an inhibition at 1 µM of 69%. `CC(C)(C)CCN1CCC2(CC1)CC2NC(=O)c1cncc(C(F)(F)F)c1` (stereo not shown) [Example 26, N-(6-(3,3-dimethylbutyl)-6-azaspiro[2.5]octan-1-yl)-5-(trifluoromethyl)nicotinamide] was tested, and the inhibition at 1 µM was 64%. With `CC(C)(C)CCN1CCC2(CC1)CC2NC(=O)c1cccc(C(F)(F)F)c1` (stereo not shown) [Example 29, N-(6-(3,3-Dimethylbutyl)-6-azaspiro[2.5]octan-1-yl)-3-(trifluoromethyl)benzamide] the inhibition at 1 µM was 69%. For `COc1cc(OC)cc(C(=O)NC2CC23CCN(CCC(C)(C)C)CC3)c1` (stereo not shown) [Example 33, N-(6-(3,3-Dimethylbutyl)-6-azaspiro[2.5]octan-1-yl)-3,5-dimethoxybenzamide], the inhibition at 1 µM was 63%. `CC(C)(C)CCN1CCC2(CC1)CC2NS(=O)(=O)c1cc(Cl)cc(Cl)c1` (stereo not shown) [Example 51, 3,5-Dichloro-N-(6-(3,3-dimethylbutyl)-6-azaspiro[2.5]octan-1-yl)benzenesulfonamide] showed an inhibition at 1 µM of 47%. For `O=S(=O)(NC1CC12CCN(CCc1ccccc1)CC2)c1cc(Cl)cc(Cl)c1` (stereo not shown) [Example 52, 3,5-Dichloro-N-(6-phenethyl-6-azaspiro[2.5]octan-1-yl)benzenesulfonamide], the inhibition at 1 µM was 29%. With `CC(C)(C)NC(=O)CN1CCC2(CC1)CC2NS(=O)(=O)c1cc(Cl)cc(Cl)c1` (stereo not shown) [Example 53, N-(tert-Butyl)-2-(1-((3,5-dichlorophenyl)sulfonamido)-6-azaspiro[2.5]octan-6-yl)acetamide] the inhibition at 1 µM was 25%.

Same assay, conditions: Table 1; tested at at least 4 concentrations; read-out: IC50
In the case of `O=C(NC1CC12CCN(CCc1ccccc1)CC2)c1cc(Cl)cc(Cl)c1` (stereo not shown) [Example 13, 3,5-Dichloro-N-(6-phenethyl-6-azaspiro[2.5]octan-1-yl)benzamide], the IC50 is reported as 30 nM. `O=C(NC1CC12CCN(Cc1ccccc1)CC2)c1cc(Cl)cc(Cl)c1` (stereo not shown) [Example 15, N-(6-Benzyl-6-azaspiro[2.5]octan-1-yl)-3,5-dichlorobenzamide] was tested, and the IC50 was 80 nM. For `CC(C)(C)NC(=O)CN1CCC2(CC1)CC2NC(=O)c1cc(F)cc(C(F)(F)F)c1` (stereo not shown) [Example 18, N-{6-[(tert-Butylcarbamoyl)methyl]-6-azaspiro[2.5]octan-1-yl}-3-fluoro-5-(trifluoromethyl)benzamide], the IC50 was 250 nM. `CC(C)(C)CCN1CCC2(CC1)CC2NC(=O)c1cc(F)cc(C(F)(F)F)c1` (stereo not shown) [Example 24, N-(6-(3,3-Dimethylbutyl)-6-azaspiro[2.5]octan-1-yl)-3-fluoro-5-(trifluoromethyl)benzamide] gave an IC50 of 20 nM. Work on `CC(C)(C)CCN1CCC2(CC1)CC2NC(=O)c1cc(Br)cc(Br)c1` (stereo not shown) [Example 25, 3,5-Dibromo-N-(6-(3,3-dimethylbutyl)-6-azaspiro[2.5]octan-1-yl)benzamide] yielded an IC50 of 60 nM. `CC(C)(C)CCN1CCC2(CC1)CC2NC(=O)c1ccc(Cl)s1` (stereo not shown) [Example 27, 5-Chloro-N-(6-(3,3-dimethylbutyl)-6-azaspiro[2.5]octan-1-yl)thiophene-2-carboxamide] showed an IC50 of 550 nM. In the case of `CC(C)(C)CCN1CCC2(CC1)CC2NC(=O)C12CC3CC(CC(C3)C1)C2` (stereo not shown) [Example 30, N-[6-(3,3-Dimethylbutyl)-6-azaspiro[2.5]octan-1-yl]adamantane-1-carboxamide], the IC50 is reported as 90 nM. With `CC(C)(C)CCN1CCC2(CC1)CC2NC(=O)Cc1cc(C(F)(F)F)cc(C(F)(F)F)c1` (stereo not shown) [Example 31, 2-(3,5-Bis(trifluoromethyl)phenyl)-N-(6-(3,3-dimethylbutyl)-6-azaspiro[2.5]octan-1-yl)acetamide] the IC50 was 80 nM. `Cc1cc(C)cc(C(=O)NC2CC23CCN(CCC(C)(C)C)CC3)c1` (stereo not shown) [Example 32, N-(6-(3,3-Dimethylbutyl)-6-azaspiro[2.5]octan-1-yl)-3,5-dimethylbenzamide] gave an IC50 of 290 nM. `CC(C)(C)CCN1CCC2(CC1)CC2NC(=O)c1cccc(C#N)c1` (stereo not shown) [Example 34, 3-Cyano-N-(6-(3,3-dimethylbutyl)-6-azaspiro[2.5]octan-1-yl)benzamide] showed an IC50 of 1400 nM. `CC(C)NC(=O)CN1CCC2(CC1)CC2NC(=O)c1cc(Cl)cc(Cl)c1` (stereo not shown) [Example 37, 3,5-Dichloro-N-(6-(2-(isopropylamino)-2-oxoethyl)-6-azaspiro[2.5]octan-1-yl)benzamide] showed an IC50 of 50 nM. `O=C(NC1CC12CCN(CCc1ccc(F)cc1)CC2)c1cc(Cl)cc(Cl)c1` (stereo not shown) [Example 40, 3,5-Dichloro-N-(6-(4-fluorophenethyl)-6-azaspiro[2.5]octan-1-yl)benzamide] gave an IC50 of 160 nM. Work on `O=C(NC1CC12CCN(CCc1ccc(Cl)cc1)CC2)c1cc(Cl)cc(Cl)c1` (stereo not shown) [Example 41, 3,5-Dichloro-N-(6-(4-chlorophenethyl)-6-azaspiro[2.5]octan-1-yl)benzamide] yielded an IC50 of 160 nM. In the case of `O=C(NC1CC12CCN(CCc1ccc(C(F)(F)F)cc1)CC2)c1cc(Cl)cc(Cl)c1` (stereo not shown) [Example 43, 3,5-Dichloro-N-(6-(4-(trifluoromethyl)phenethyl)-6-azaspiro[2.5]octan-1-yl)benzamide], the IC50 is reported as 120 nM. `O=C(NC1CC12CCN(CCCc1ccccc1)CC2)c1cc(Cl)cc(Cl)c1` (stereo not shown) [Example 45, 3,5-Dichloro-N-(6-(3-phenylpropyl)-6-azaspiro[2.5]octan-1-yl)benzamide] showed an IC50 of 40 nM. `O=C(NC1CC12CCN(CC1CCOCC1)CC2)c1cc(Cl)cc(Cl)c1` (stereo not shown) [Example 46, 3,5-Dichloro-N-(6-((tetrahydro-2H-pyran-4-yl)methyl)-6-azaspiro[2.5]octan-1-yl)benzamide] gave an IC50 of 150 nM. `O=C(NC1CC12CCN(CCC1CCOCC1)CC2)c1cc(Cl)cc(Cl)c1` (stereo not shown) [Example 47, 3,5-Dichloro-N-(6-(2-(tetrahydro-2H-pyran-4-yl)ethyl)-6-azaspiro[2.5]octan-1-yl)benzamide] showed an IC50 of 160 nM. `O=C(NC1CC12CCN(CCCC1CCOCC1)CC2)c1cc(Cl)cc(Cl)c1` (stereo not shown) [Example 48, 3,5-Dichloro-N-(6-(3-(tetrahydro-2H-pyran-4-yl)propyl)-6-azaspiro[2.5]octan-1-yl)benzamide] gave an IC50 of 260 nM. Molecule `CC(C)(C)C(=O)CN1CCC2(CC1)CC2NC(=O)c1cc(Cl)cc(Cl)c1` (stereo not shown) [Example 49, 3,5-Dichloro-N-(6-(3,3-dimethyl-2-oxobutyl)-6-azaspiro[2.5]octan-1-yl)benzamide] has an IC50 of 160 nM. With `O=C(CN1CCC2(CC1)CC2NC(=O)c1cc(Cl)cc(Cl)c1)c1ccc(C(F)(F)F)cc1` (stereo not shown) [Example 50, 3,5-Dichloro-N-(6-(2-oxo-2-(4-(trifluoromethyl)phenyl)ethyl)-6-azaspiro[2.5]octan-1-yl)benzamide] the IC50 was 80 nM. `CN(C(=O)c1cc(Cl)cc(Cl)c1)C1CC12CCN(CCC(C)(C)C)CC2` (stereo not shown) [Example 54, 3,5-Dichloro-N-(6-(3,3-dimethylbutyl)-6-azaspiro[2.5]octan-1-yl)-N-methylbenzamide] was tested, and the IC50 was 230 nM.
